Data: patent publication US20250163072A1, “MACROCYCLIC COMPOUNDS FOR THE TREATMENT OF CANCER” (Hoffmann-La Roche Inc., priority 2021, published 2025)
pIC50: −log10 of the molar value.

Assays:
Type in all cases: cell-based, human
SW620 cells = assay: Cell viability assay, SW620; settings: Homo sapiens, SW-620, SW620, 72 hours, Cell Counting Kit-8, read-out: G12V IC50
Experimental: (§1) The purpose of this cellular assay was to determine the effects of test compounds on the proliferation of human cancer cell lines NCI-H358 (ATCC-CRL5807) cells, AGS (ATCC-CRL-1739) cells, SW620 (ATCC-CCL-227) over a 3-day treatment period by quantifying the amount of NADPH present at endpoint using Cell Counting Kit-8. Cells were seeded at 5,000 cells/well (NCI-H358), 2,000 cells/well (AGS) 2,000 cells/well (SW620) in 96-well assay plates (Corning-3699) and incubated overnight. On the day of the assay, diluted compounds were then added in a final concentration of 0.5% DMSO. After 72 hours incubation, a tenth of the volume of cell counting kit 8(Dnjindo-CK04) was added into each well. Read the signal (OD450 minus OD650) using EnVision after 2 hours incubation. IC50 was determined by fitting a 4-parameter sigmoidal concentration response model.

NCI-H358 cells = assay: Cell viability assay, NCI-H358; settings: Homo sapiens, NCI-H358, 72 hours, Cell Counting Kit-8, read-out: G12C IC50
Experimental: as §1

AGS cells = assay: Cell viability assay, AGS; settings: Homo sapiens, 72 hours, Cell Counting Kit-8, read-out: G12D IC50
Experimental: as §1

KRAS G12V in SW620 = assay: pERK inhibition assay, SW620; settings: Homo sapiens, SW-620, SW620 cells, 4 hours incubation
Experimental: (§2) This assay is to measure the ability of test compounds in inhibiting the phosphorylation of ERK, the downstream signaling of KRAS G12C in NCI-H358 cells, KRAS G12D in AGS cells, and KRAS G12V in SW620. NCI-H358 (ATCC-CRL5807) cells, AGS (ATCC-CRL-1739) cells, SW620 (ATCC-CCL-227) cells were all grown and maintained using RPMI-1640 medium (Thermo Fisher Scientific) with 10% fetal bovine serum and 1% penicillin/streptomycin. On the day prior to compound addition, cells were plated in tissue culture-treated 96 well plates (Corning-3699) at a density of 30,000 cell/well, 20,000 cell/well, 30,000 cell/well for NCI-H358, AGS and SW620 respectively, and allowed for attachment overnight. Diluted compounds were then added in a final concentration of 0.5% DMSO. After 4 hours of incubation, the medium was removed, 100 μL of 4% formaldehyde was added, and the assay plates were incubated at room temperature for 20 minutes. The plates were then washed once with phosphate buffered saline (PBS), and permeabilized with 100 μL of chilled methanol for 10 minutes. Non-specific antibody binding to the plates was blocked using 50 μL 1×BSA blocking buffer (Thermo-37520, 10-fold dilution by Phosphate-Buffered Saline Tween (PBST) for at least 1 hour at room temperature. The amount of phosphor-ERK was determined using an antibody specific for phosphorylated form of ERK. Primary antibody (pERK, CST-4370, Cell Signaling Technology) was diluted 1:300 in blocking buffer, with 50 μL aliquoted to each well, and incubated overnight at 4° C. Cells were washed five times for 5 minutes with PBST. Secondary antibody (HRP-linked anti-rabbit IgG, CST-7074, Cell Signaling Technology) was diluted 1:1000 in blocking buffer, and 50 μL was added to each well and incubated 1-2 hours at room temperature. Cells were washed 5 times for 5 minutes with PBST, 100 μL TMB ELISA substrate (abcam-ab171523) were added and gently shake for 20 minutes. 50 μL stop solution (abcam-ab171529) were added, and then read the signal (OD450) by EnVision. IC50 was determined by fitting a 4-parameter sigmoidal concentration response model.

[1] = test system: KRAS G12C in NCI-H358 cells; assay: pERK inhibition assay, NCI-H358; settings: Homo sapiens, 4 hours incubation
Experimental: as §2

KRAS G12D in AGS cells = assay: pERK inhibition assay, AGS; settings: Homo sapiens, 4 hours incubation
Experimental: as §2

C#CC1CN(C(=O)N(C)[C@H](C(=O)N[C@H]2Cc3cc(O)cc(c3)-c3ccc4c(c3)c(c(-c3cccnc3[C@H](C)OC)n4CC)CC(C)(C)COC(=O)[C@@H]3CCCN(N3)C2=O)C(C)C)C1 (atropisomer, axis not shown; (M)) [Example 14, N-[(1S)-1-[[(8S,14S)-22-ethyl-4-hydroxy-(21M)-21-[2-[(1S)-1-methoxyethyl]-3-pyridyl]-18,18-dimethyl-9,15-dioxo-16-oxa-10,22,28-triazapentacyclo[18.5.2.12,6.110,14.023,27]nonacosa-1(26),2,4,6(29),20,23(27),24-heptaen-8-yl]carbamoyl]-2-methyl-propyl]-3-ethynyl-N-methyl-azetidine-1-carboxamide]
pIC50 (SW620 cells): 6.44 | pIC50 (NCI-H358 cells): 6.85 | pIC50 (AGS cells): 5.86 | pIC50 (KRAS G12V in SW620): 6.97 | pIC50 [1]: 7.20 | pIC50 (KRAS G12D in AGS cells): 6.28

CCn1c(-c2cccnc2[C@H](C)OC)c2c3cc(ccc31)-c1csc(n1)C[C@H](NC(=O)[C@H](C(C)C)N(C)C(=O)[C@H]1CCN(C(=O)[C@H](F)Cl)C1)C(=O)N1CCC[C@H](N1)C(=O)OCC(C)(C)C2 (atropisomer, axis not shown; (M)) [Example 17, (3S)-1-[(2R)-2-chloro-2-fluoro-acetyl]-N-[(1S)-1-[[(7S,13S)-21-ethyl-(20M)-20-[2-[(1S)-1-methoxyethyl]-3-pyridyl]-17,17-dimethyl-8,14-dioxo-15-oxa-4-thia-9,21,27,28-tetrazapentacyclo[17.5.2.12,5.19,13.022,26]octacosa-1(25),2,5(28),19,22(26),23-hexaen-7-yl]carbamoyl]-2-methyl-propyl]-N-methyl-pyrrolidine-3-carboxamide]
pIC50 (SW620 cells): 6.35 | pIC50 (NCI-H358 cells): 8.22 | pIC50 (AGS cells): 5.95 | pIC50 (KRAS G12V in SW620): 6.91 | pIC50 [1]: 7.64

CCn1c(-c2cccnc2[C@H](C)OC)c2c3cc(ccc31)-c1cc(O)cc(c1)C[C@H](NC(=O)[C@H](C(C)C)N(C)C(=O)[C@H]1CCN(C(=O)[C@@H](F)Cl)C1)C(=O)N1CCC[C@H](N1)C(=O)OCC(C)(C)C2 (atropisomer, axis not shown; (M)) [Example 1, (3S)-1-[(2S)-2-chloro-2-fluoro-acetyl]-N-[(1S)-1-[[(8S,14S)-22-ethyl-4-hydroxy-(21M)-21-[2-[(1S)-1-methoxyethyl]-3-pyridyl]-18,18-dimethyl-9,15-dioxo-16-oxa-10,22,28-triazapentacyclo[18.5.2.12,6.110,14.023,27]nonacosa-1(26),2,4,6 (29),20,23 (27),24-heptaen-8-yl]carbamoyl]-2-methyl-propyl]-N-methyl-pyrrolidine-3-carboxamide]
pIC50 (NCI-H358 cells): 8.40 | pIC50 [1]: 8.10 | pIC50 (KRAS G12D in AGS cells): 6.33

CCn1c(-c2cccnc2[C@H](C)OC)c2c3cc(ccc31)-c1cc(O)cc(c1)C[C@H](NC(=O)[C@H](C(C)C)N(C)C(=O)C1CC(C(=O)C=S(C)(C)=O)C1)C(=O)N1CCC[C@H](N1)C(=O)OCC(C)(C)C2 (stereo partly drawn) [Example 8, 3-[2-[dimethyl(oxo)-λ^6-sulfanylidene]acetyl]-N-[(1S)-1-[[(8S,14S)-22-ethyl-4-hydroxy-(21M)-21-[2-[(1S)-1-methoxyethyl]-3-pyridyl]-18,18-dimethyl-9,15-dioxo-16-oxa-10,22,28-triazapentacyclo[18.5.2.12,6.110,14.023,27]nonacosa-1(26),2,4,6(29),20,23(27),24-heptaen-8-yl]carbamoyl]-2-methyl-propyl]-N-methyl-cyclobutanecarboxamide]
pIC50 [1]: 6.36

CCn1c(-c2cccnc2[C@H](C)OC)c2c3cc(ccc31)-c1cc(O)cc(c1)C[C@H](NC(=O)[C@H](C(C)C)N(C)C(=O)[C@H]1CCN(C(=O)C34CC3C4)C1)C(=O)N1CCC[C@H](N1)C(=O)OCC(C)(C)C2 (stereo partly drawn) [Example 11, (3S)-1-(bicyclo[1.1.0]butane-1-carbonyl)-N-[(1S)-1-[[(8S,14S)-22-ethyl-4-hydroxy-(21M)-21-[2-[(1S)-1-methoxyethyl]-3-pyridyl]-18,18-dimethyl-9,15-dioxo-16-oxa-10,22,28-triazapentacyclo[18.5.2.12,6.110,14.023,27]nonacosa-1(26),2,4,6(29),20,23(27),24-heptaen-8-yl]carbamoyl]-2-methyl-propyl]-N-methyl-pyrrolidine-3-carboxamide]
pIC50 (SW620 cells): 6.79 | pIC50 (NCI-H358 cells): 6.93 | pIC50 (KRAS G12V in SW620): 6.42 | pIC50 [1]: 7.08 | pIC50 (KRAS G12D in AGS cells): 6.79

C#CC1CC(C(=O)N(C)[C@H](C(=O)N[C@H]2Cc3cc(O)cc(c3)-c3ccc4c(c3)c(c(-c3cccnc3[C@H](C)OC)n4CC)CC(C)(C)COC(=O)[C@@H]3CCCN(N3)C2=O)C(C)C)C1 (stereo partly drawn) [Example 4, N-[(1S)-1-[[(8S,14S)-22-ethyl-4-hydroxy-(21M)-21-[2-[(1S)-1-methoxyethyl]-3-pyridyl]-18,18-dimethyl-9,15-dioxo-16-oxa-10,22,28-triazapentacyclo[18.5.2.12,6.110,14.023,27]nonacosa-1(26),2,4,6(29),20,23(27),24-heptaen-8-yl]carbamoyl]-2-methyl-propyl]-3-ethynyl-N-methyl-cyclobutanecarboxamide]
pIC50 (SW620 cells): 6.79 | pIC50 (NCI-H358 cells): 7.52 | pIC50 (KRAS G12V in SW620): 7.29 | pIC50 [1]: 7.38 | pIC50 (KRAS G12D in AGS cells): 6.53

CCn1c(-c2cccnc2[C@H](C)OC)c2c3cc(ccc31)-c1cc(O)cc(c1)C[C@H](NC(=O)[C@H](C(C)C)N(C)C(=O)C1CC(C#Cc3ccccn3)C1)C(=O)N1CCC[C@H](N1)C(=O)OCC(C)(C)C2 (stereo partly drawn) [Example 13, N-[(1S)-1-[[(8S,14S)-22-ethyl-4-hydroxy-(21M)-21-[2-[(1S)-1-methoxyethyl]-3-pyridyl]-18,18-dimethyl-9,15-dioxo-16-oxa-10,22,28-triazapentacyclo[18.5.2.12,6.110,14.023,27]nonacosa-1(26),2,4,6(29),20,23(27),24-heptaen-8-yl]carbamoyl]-2-methyl-propyl]-N-methyl-3-[2-(2-pyridyl)ethynyl]cyclobutanecarboxamide]
pIC50 (SW620 cells): 6.48 | pIC50 (NCI-H358 cells): 7.18 | pIC50 (KRAS G12V in SW620): 6.56 | pIC50 [1]: 6.72

C#CCN1CC[C@H](C(=O)N(C)[C@H](C(=O)N[C@H]2Cc3cc(O)cc(c3)-c3ccc4c(c3)c(c(-c3cccnc3[C@H](C)OC)n4CC)CC(C)(C)COC(=O)[C@@H]3CCCN(N3)C2=O)C(C)C)C1 (atropisomer, axis not shown; (M)) [Example 6, (3S)-N-[(1S)-1-[[(8S,14S)-22-ethyl-4-hydroxy-(21M)-21-[2-[(1S)-1-methoxyethyl]-3-pyridyl]-18,18-dimethyl-9,15-dioxo-16-oxa-10,22,28-triazapentacyclo[18.5.2.12,6.110,14.023,27]nonacosa-1(26),2,4,6(29),20,23(27),24-heptaen-8-yl]carbamoyl]-2-methyl-propyl]-N-methyl-1-prop-2-ynyl-pyrrolidine-3-carboxamide]
pIC50 (NCI-H358 cells): 6.10

CCn1c(-c2cccnc2[C@H](C)OC)c2c3cc(ccc31)-c1cc(O)cc(c1)C[C@H](NC(=O)[C@H](C(C)C)N(C)C(=O)[C@H]1CCN(CC#N)C1)C(=O)N1CCC[C@H](N1)C(=O)OCC(C)(C)C2 (atropisomer, axis not shown; (M)) [Example 7, (3S)-1-(cyanomethyl)-N-[(1S)-1-[[(8S,14S)-22-ethyl-4-hydroxy-(21M)-21-[2-[(1S)-1-methoxyethyl]-3-pyridyl]-18,18-dimethyl-9,15-dioxo-16-oxa-10,22,28-triazapentacyclo[18.5.2.12,6.110,14.023,27]nonacosa-1(26),2,4,6(29),20,23(27),24-heptaen-8-yl]carbamoyl]-2-methyl-propyl]-N-methyl-pyrrolidine-3-carboxamide]
pIC50 [1]: 6.29 | pIC50 (KRAS G12D in AGS cells): 6.63
